Data as given in ChEMBL document CHEMBL1201862, “PubChem BioAssay data set” (2004).
Active and inactive are the calls of the source.

Assays:
[1] = molecular target: Paired box protein Pax-8 (Homo sapiens, UniProt Q06710); test: PAX8 transcriptional activity inhibition in RMG-I – RMG-I cells, luciferase, cherry-pick, dose response (AID 687027); format: functional, cell-based;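 further: luciferase reporter driven by Pax8 target thyroperoxidase promoter measured by SteadyGlo luminescence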
[2] = growth inhibition of yeast DHODH-expressing 3D7 parasites – SYBR Green, dry powder samples, dose response (AID 1159570); format: functional, cell-based;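 further: parasite growth measured after 72 hours of compound exposure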
[3] = toxicity to human HepG2 hepatoma cells – cell-based, plate reader, dry powder samples, cytotoxicity control, dose response (AID 1159569); format: functional;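 further: inhibitor potency with signal falling toward the positive control level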
[4] = P. falciparum Dd2 growth inhibitors, dose response, SYBR Green, cherry-picked samples (AID 1159567); format: functional, cell-based
[5] = Dd2 malaria parasite growth inhibition potency – SYBR Green, dry powder samples, dose response (AID 1159566); format: functional, cell-based;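 further: potency for growth inhibition with lower SYBR green DNA signal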
[6] = growth inhibition of PfATP4-mutant resistant parasites – NITD609-resistant line, SYBR Green, dry powder, dose response (AID 1159571); format: functional, cell-based;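 further: parasites synchronized at ring stage by sorbitol before testing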
[7] = molecular target: T1, Aminopeptidase N (Plasmodium falciparum FcB1/Columbia, UniProt O96935); test: malaria alanyl aminopeptidase activity blockers – biochemical, fluorogenic H-Leu-NHMec substrate, 1536-well (AID 1445); design: species or system Plasmodium falciparum 3D7, 3D7
T1 sequence (O96935 whole entry): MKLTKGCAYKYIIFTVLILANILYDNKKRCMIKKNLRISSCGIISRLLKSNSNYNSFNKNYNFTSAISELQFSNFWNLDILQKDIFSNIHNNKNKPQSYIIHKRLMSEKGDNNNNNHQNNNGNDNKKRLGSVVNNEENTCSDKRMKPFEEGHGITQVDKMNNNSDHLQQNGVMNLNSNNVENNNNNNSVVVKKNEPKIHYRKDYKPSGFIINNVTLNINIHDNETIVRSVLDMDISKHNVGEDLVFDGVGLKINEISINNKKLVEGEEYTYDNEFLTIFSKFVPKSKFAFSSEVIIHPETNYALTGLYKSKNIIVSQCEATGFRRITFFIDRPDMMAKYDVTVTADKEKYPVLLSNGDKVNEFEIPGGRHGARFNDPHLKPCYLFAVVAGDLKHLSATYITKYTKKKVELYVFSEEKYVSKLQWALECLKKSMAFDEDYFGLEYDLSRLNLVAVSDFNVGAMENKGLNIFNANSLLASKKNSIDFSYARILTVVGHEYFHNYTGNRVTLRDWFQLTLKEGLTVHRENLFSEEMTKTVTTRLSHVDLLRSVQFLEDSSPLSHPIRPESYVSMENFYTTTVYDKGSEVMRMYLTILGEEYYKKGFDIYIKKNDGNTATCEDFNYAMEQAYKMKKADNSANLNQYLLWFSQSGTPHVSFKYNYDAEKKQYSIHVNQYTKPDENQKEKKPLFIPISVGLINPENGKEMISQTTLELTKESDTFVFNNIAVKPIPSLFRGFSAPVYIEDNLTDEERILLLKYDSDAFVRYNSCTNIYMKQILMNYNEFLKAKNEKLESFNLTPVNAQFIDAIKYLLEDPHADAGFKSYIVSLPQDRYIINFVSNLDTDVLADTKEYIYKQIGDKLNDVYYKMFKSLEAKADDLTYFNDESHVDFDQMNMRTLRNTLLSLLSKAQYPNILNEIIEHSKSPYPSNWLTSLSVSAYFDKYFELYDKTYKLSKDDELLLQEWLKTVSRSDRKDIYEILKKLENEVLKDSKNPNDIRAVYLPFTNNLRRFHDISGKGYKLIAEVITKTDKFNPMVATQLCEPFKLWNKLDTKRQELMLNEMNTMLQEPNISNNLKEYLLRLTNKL

[8] = molecular target: Kallikrein-7 (Homo sapiens, UniProt P49862); test: Fluorescence Intensity-based biochemical primary high throughput dose response assay to identify activators of kallikrein-7 (K7) zymogen.
[9] = molecular target: T2, Caspase-3 (Homo sapiens, UniProt P42574); format: functional;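 further: Dose-response selectivity test against caspase-3 for candidate inhibitors of sentrin-specific proteases (SENPs)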
T2 sequence (P42574 whole entry): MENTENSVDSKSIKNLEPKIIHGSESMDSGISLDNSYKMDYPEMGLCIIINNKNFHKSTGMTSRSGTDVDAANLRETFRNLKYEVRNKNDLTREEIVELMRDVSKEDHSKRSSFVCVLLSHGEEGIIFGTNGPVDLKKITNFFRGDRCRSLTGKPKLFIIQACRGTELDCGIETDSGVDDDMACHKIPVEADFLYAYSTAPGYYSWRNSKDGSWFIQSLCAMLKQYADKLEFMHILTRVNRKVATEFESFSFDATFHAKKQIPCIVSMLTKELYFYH

[10] = molecular target: T3, Sentrin-specific protease 7 (Homo sapiens, UniProt Q9BQF6); format: functional;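 further: Luminescence-based dose-response confirmation of ultra-high-throughput screening hits, measuring inhibition of SENP7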
T3 sequence (Q9BQF6 whole entry): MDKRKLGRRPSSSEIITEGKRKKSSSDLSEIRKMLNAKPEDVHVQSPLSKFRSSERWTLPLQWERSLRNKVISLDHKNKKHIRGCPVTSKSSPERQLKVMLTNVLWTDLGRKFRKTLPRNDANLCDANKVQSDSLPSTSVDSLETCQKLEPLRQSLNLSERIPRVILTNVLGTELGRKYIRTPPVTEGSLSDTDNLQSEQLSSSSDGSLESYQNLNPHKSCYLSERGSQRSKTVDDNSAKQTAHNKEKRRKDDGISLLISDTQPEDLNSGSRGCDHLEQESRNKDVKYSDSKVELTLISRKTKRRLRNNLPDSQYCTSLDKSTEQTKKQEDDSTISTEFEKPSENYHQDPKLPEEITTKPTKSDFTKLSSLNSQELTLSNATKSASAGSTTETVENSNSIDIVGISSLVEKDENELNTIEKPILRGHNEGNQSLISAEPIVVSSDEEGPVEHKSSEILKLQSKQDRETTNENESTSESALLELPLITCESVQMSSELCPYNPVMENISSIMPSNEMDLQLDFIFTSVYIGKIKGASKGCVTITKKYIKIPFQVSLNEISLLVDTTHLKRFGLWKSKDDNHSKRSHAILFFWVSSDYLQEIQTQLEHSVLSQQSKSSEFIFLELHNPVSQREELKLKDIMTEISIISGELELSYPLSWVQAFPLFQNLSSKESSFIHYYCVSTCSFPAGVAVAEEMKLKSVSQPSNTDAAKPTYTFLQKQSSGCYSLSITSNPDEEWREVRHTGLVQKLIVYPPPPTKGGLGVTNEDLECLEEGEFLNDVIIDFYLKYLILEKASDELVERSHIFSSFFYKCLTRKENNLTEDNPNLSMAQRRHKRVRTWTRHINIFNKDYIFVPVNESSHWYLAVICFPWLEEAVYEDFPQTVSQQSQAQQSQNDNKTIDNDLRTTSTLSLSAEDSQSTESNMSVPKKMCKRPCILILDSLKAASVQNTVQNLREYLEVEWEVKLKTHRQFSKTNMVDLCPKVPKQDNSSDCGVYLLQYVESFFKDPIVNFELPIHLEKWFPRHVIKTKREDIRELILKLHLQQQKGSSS

[11] = molecular target: T4, Sentrin-specific protease 6 (Homo sapiens, UniProt Q9GZR1); format: functional;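 further: Luminescence-based dose-response confirmatory assay of SENP6 inhibition, following up an ultra-high-throughput screen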
T4 sequence (Q9GZR1 whole entry): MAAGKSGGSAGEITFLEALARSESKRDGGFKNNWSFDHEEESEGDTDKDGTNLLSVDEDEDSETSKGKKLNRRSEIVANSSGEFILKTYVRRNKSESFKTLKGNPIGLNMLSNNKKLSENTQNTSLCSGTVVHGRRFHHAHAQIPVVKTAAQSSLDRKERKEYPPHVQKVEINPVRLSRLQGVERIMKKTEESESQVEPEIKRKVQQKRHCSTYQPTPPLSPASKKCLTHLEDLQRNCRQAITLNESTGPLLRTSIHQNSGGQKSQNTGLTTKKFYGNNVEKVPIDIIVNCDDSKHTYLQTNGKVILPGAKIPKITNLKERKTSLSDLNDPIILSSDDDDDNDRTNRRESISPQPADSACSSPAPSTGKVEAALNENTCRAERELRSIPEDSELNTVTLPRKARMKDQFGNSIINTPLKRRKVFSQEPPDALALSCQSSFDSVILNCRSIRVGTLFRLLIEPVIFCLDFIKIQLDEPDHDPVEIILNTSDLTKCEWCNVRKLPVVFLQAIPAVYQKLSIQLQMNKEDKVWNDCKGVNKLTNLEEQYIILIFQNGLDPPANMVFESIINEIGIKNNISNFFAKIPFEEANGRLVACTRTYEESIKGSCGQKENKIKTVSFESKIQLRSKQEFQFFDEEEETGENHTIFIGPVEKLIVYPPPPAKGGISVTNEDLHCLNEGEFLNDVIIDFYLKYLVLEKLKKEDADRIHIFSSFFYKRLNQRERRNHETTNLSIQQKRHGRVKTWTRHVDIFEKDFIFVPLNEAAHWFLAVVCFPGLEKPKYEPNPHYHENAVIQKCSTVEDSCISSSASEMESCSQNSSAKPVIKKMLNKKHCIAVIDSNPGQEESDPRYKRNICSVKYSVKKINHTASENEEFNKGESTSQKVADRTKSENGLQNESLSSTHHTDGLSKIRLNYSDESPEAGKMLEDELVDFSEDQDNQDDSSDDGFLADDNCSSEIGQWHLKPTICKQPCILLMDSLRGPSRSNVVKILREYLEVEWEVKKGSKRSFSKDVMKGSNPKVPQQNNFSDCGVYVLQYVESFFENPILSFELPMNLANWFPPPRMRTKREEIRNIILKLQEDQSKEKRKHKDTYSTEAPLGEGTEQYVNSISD

[12] = molecular target: T5, Sentrin-specific protease 8 (Homo sapiens, UniProt Q96LD8); format: functional;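 further: luminescence read-out of SENP8 inhibition, dose-response confirmation following an ultra-high-throughput screen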
T5 sequence (Q96LD8 whole entry): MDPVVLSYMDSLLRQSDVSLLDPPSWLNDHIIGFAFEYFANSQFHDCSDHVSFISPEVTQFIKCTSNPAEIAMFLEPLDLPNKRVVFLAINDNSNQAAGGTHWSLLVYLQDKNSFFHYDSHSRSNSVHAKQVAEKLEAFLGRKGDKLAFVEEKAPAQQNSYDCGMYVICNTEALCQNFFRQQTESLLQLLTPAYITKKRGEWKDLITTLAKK

[13] = Luminescence-based cell-based high throughput dose response assay to identify activators of the DAF-12 from the parasite S. stercoralis (ssDAF-12).; format: functional
[14] = molecular target: T6, Oxysterols receptor LXR-beta (Homo sapiens, UniProt P55055); test: LXR agonists, Gal4 luciferase reporter, dose response, counter-screen for ssDAF-12 agonist project, cell-based, luminescence, HEK293, S. stercoralis campaign (AID 720737); format: functional; conditions: read-out: IC50 (the source's name)
T6 sequence (P55055 whole entry): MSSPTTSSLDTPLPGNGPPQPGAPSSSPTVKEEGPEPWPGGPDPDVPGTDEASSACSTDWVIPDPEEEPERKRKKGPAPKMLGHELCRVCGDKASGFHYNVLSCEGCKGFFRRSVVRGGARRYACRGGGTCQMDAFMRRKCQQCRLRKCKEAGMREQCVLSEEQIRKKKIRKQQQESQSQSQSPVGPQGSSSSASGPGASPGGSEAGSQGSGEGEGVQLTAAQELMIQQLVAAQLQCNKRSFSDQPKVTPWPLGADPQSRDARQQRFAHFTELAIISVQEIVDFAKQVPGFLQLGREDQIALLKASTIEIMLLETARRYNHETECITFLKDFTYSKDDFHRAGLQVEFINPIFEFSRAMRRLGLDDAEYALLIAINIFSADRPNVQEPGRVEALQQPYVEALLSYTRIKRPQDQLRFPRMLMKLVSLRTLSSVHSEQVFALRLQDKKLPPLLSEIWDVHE

[15] = molecular target: T7, Cytochrome P450 1A2 (Homo sapiens, UniProt P05177);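 further: PubChem cytochrome P450 panel assay, CYP1A2 panel member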
T7 sequence (P05177 whole entry): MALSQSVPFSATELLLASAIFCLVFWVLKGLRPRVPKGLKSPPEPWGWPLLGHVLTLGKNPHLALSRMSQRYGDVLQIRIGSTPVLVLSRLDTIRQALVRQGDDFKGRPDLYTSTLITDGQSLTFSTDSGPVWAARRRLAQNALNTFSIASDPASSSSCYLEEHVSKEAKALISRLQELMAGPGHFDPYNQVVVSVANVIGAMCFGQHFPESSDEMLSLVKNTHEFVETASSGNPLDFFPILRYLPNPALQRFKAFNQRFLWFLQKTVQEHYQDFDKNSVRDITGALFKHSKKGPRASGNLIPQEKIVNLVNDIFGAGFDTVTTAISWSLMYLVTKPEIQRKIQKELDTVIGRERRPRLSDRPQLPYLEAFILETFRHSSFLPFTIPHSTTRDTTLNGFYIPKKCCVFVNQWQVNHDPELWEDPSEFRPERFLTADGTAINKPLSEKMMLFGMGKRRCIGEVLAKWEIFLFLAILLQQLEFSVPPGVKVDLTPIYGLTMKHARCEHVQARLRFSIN

[16] = tested on: HEK293; test: EBV LMP1 TES2 canonical NF-kB signalling blockers – cell-based, HEK293, luciferase, cherry-pick, dose response (AID 588343); format: functional; conditions: Homo sapiens
[17] = rise of 2N DNA cells, HeLa – IC50, dose response (AID 1117349); format: functional, cell-based
[18] = rise of 4N DNA cells, HeLa – IC50, dose response (AID 1117351); format: functional, cell-based
[19] = molecular target: Voltage-gated inwardly rectifying potassium channel KCNH2 (Homo sapiens, UniProt Q12809); conditions: Potency;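 further: confirmatory quantitative high-throughput screen measuring inhibition of hERG channel activity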
Sequence of Voltage-gated inwardly rectifying potassium channel KCNH2 (Q12809 whole entry): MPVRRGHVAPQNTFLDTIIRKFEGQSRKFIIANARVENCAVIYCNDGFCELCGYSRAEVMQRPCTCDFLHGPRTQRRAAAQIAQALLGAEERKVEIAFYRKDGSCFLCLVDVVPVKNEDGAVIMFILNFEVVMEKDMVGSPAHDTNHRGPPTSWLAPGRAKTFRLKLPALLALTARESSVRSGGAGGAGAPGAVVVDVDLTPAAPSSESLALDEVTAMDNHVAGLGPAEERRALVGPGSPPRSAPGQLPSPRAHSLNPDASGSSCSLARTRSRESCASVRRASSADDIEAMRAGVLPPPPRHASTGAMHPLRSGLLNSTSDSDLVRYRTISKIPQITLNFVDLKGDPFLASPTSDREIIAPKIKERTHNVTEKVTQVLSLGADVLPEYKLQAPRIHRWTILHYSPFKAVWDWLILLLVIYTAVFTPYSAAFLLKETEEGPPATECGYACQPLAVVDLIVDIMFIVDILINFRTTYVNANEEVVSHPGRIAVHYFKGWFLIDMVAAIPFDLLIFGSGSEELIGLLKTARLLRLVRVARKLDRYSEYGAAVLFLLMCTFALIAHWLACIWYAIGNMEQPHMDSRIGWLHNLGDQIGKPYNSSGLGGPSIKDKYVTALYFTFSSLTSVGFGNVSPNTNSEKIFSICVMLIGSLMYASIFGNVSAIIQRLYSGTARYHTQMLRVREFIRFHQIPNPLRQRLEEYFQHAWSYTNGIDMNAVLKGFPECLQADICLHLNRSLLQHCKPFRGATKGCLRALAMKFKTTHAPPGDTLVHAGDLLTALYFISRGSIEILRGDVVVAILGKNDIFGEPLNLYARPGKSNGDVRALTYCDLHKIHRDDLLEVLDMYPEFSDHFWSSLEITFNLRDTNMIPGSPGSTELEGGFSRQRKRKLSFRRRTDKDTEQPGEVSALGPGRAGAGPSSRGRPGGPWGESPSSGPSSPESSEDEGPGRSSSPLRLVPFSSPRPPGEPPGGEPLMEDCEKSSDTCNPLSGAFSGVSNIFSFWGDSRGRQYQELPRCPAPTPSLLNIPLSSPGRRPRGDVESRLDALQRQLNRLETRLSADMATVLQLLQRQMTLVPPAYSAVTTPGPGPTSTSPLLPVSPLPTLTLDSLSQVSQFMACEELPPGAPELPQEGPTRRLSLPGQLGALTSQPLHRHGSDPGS

Sequence of Kallikrein-7 (P49862 whole entry): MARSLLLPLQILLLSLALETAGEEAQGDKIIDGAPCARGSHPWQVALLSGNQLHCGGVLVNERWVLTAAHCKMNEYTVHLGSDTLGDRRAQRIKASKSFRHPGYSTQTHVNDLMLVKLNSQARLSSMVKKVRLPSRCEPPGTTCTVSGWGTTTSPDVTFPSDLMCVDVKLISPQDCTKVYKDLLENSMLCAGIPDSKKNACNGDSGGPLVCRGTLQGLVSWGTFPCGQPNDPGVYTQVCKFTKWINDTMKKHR
Sequence of Paired box protein Pax-8 (Q06710 whole entry): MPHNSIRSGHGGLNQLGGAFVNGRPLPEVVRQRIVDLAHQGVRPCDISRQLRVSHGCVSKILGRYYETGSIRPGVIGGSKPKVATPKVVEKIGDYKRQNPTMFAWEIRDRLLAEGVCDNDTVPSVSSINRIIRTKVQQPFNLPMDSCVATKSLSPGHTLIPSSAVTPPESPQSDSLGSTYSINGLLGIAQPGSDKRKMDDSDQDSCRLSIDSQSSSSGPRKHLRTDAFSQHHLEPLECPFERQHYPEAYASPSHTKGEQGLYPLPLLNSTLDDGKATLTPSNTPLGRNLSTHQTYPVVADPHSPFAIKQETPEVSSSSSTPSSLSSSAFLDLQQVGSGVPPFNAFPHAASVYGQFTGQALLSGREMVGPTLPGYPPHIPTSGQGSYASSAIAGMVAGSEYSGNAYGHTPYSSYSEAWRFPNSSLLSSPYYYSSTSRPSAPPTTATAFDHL

Structure (SMILES): C[C@H](CO)N1C[C@H](C)[C@H](CN(C)S(=O)(=O)c2cccc(F)c2)OCc2ccccc2-c2c(n(C)c3ccccc23)C1=O
- AC50 [1]: 11.3 µM (active)
- AC50 [2]: 1.6 µM (active)
- AC50 [3]: 31.5 µM (active)
- AC50 [4]: 2.07 µM (active)
- AC50 [5]: 0.722 µM (active)
- AC50 [6]: 0.62 µM (active)

Structure (SMILES): Cc1ccc(OC(=O)N(C)C[C@H]2OCc3ccccc3-c3c(n(C)c4ccccc34)C(=O)N([C@H](C)CO)C[C@@H]2C)cc1
- AC50 [2]: 1.72 µM (active)
- AC50 [3]: 22.9 µM (active)
- AC50 [4]: 2.53 µM (active)
- AC50 [5]: 1.71 µM (active)
- AC50 [6]: 1.96 µM (active)

Structure (SMILES): CCN(CC)CCCNc1oc(/C=C/c2ccccc2)nc1C#N
- IC50 [7]: 61 µM (active)
- EC50 [8]: > 69.5 µM (inactive)

Structure (SMILES): Cc1ccc(NC(=O)c2oc3ccccc3c2C)nc1
- IC50 [9]: 25.8 µM (active)
- IC50 [10]: 7.35 µM (active)
- IC50 [11]: 85.3 µM (active)
- IC50 [12]: > 100 µM (inactive)
- IC50 [13]: > 67.5 µM (inactive)
- EC50 [14]: > 67.5 µM (inactive)

Structure (SMILES): CCC(C)C(NS(=O)(=O)c1ccc(C)cc1)C(=O)Oc1ccc2c3c(c(=O)oc2c1)CCC3 (stereo not given)
- EC50 [8]: > 69.5 µM (inactive)
- AC50 [15]: 11.2 µM (inconclusive)

Structure (SMILES): N[C@@H](Cc1ccc(N(CCCl)CCCl)cc1)C(=O)O
- AC50 [16]: 10.3 µM (active)
- IC50 [17]: 2.26 µM (active)
- IC50 [18]: 5.36 µM (inactive)
- AC50 [19]: 15.8 µM (inconclusive)
